Measured values published in patent publication US20100049117A1, “Microporator for Porating a Biological Membrane and Integrated Permeant Administering System” (PANTEC BIOSOLUTIONS AG, priority 2005, published 2010).

Assay: Serum concentration of drug over time after application onto microporated skin (FIG. 10a, 10b)
Format: in vivo
Details: for period of time of maximal serum concentration: transdermal
Description: FIG. 10a, 10b show the serum concentration of a drug over time, with the same amount of drug but different permeation surfaces.
The drug is entering the permeation surface by passive diffusion. The amount of drug entering the permeation surface is mainly determined by the permeation surface A(t) over time. Therefore, the serum concentration as a function of time can be determined by an appropriate poration of the skin 1 with an initial microporation.
FIG. 10a to 10b show the administration of the same drug, for example 100 mg acetylsalicylic acid, the drug being arranged on the skin 1 as disclosed in FIG. 3c. Depending on the permeation surface A(t) as a function of time, the level of the serum concentration as well as the time period within which the drug is released, can be predescribed. In FIG. 10a the permeation surface A(t), not shown in detail, is chosen such that the maximal serum concentration is about 25 g/l over a short period of time of about two hours. […] A further advantage is that the same amount of drug, e.g. the same patch, applied onto the skin 1, causes a different serum concentration, depending only on the function of the permeation surface A over time. This allows administering the same drug in different ways. This also allows administering the same drug in an individual way, in that the initial permeation surface is created depending on individual parameters of the person the drug is applied to.

CC(=O)Oc1ccccc1C(=O)O [acetylsalicylic acid]
period of time of maximal serum concentration (FIG. 10a, 100 mg): about two
maximal serum concentration (FIG. 10b, 100 mg, fast application (turbo), patch on microporated skin (transdermal)): about 30 g/l
period of time of maximal serum concentration (FIG. 10b, 100 mg, fast application (turbo)): about two
course of serum concentration (oral application OA): heavy fluctuation
course of serum concentration (transdermal application TD): about constant value
